“Also recorded” adds a separate entry of the source.

The test system of experiment [1] is NB4. The experiment in a line: Apoptosis by Annexin V / propidium iodide flow cytometry in NB4. Format: cell-based. The following applies: 96 hours; for apoptotic cells: combination with azacitidine vs single agent. The procedure: (§1) Briefly, the AML cell lines HL-60 (FIGS. 4A and 4D), Kasumi-1 (FIGS. 4B and 4E) and NB4 (FIGS. 4C and 4F) were treated with the indicated concentrations of compounds. In FIGS. 4A-C, surface levels of myeloid differentiation marker CD11b were determined by FACS at 72 hours post-treatment. […] In FIGS. 4D-F, apoptosis was assessed by flow cytometry by measuring Annexin V binding and cellular permeability to propidium iodide at 96 hours post-treatment. The relative fraction of cells that were alive, in early apoptosis, in late apoptosis, or dead was then determined.
FIGS. 7A-F show the combination of HDAC inhibitors and azacitidine in the NB4 cell line. Briefly, cells were treated with DMSO, Compound B, Compound A, or Compound E as single agent or in combination with azacitidine at the indicated concentrations. Surface levels of CD11b were determined 72 hours post-treatment (FIGS. 7A, 7C, 7E), and apoptosis was assessed 96 hours post-treatment (FIGS. 7B, 7D, 7F).
(In general: A flow cytometer gives signals particle by particle.)

Experiment [2] deals with Kasumi-1. The experiment in a line: Surface CD11b by FACS in Kasumi-1. In kind it is cell-based. The following applies: combination with azacitidine vs single agent, 72 hours. The procedure:
as §1
(§2) Briefly, cells were treated with DMSO, Compound B, Compound A, or Compound E as a single agent or in combination with azacitidine at the indicated concentrations. Surface levels of CD11b were determined 72 hours post-treatment (FIGS. 6A, 6C, 6E), and apoptosis was assessed 96 hours post-treatment (FIGS. 6B, 6D, 6F).

Experiment [3] relates to HL-60. The experiment in a line: Surface CD11b by FACS in HL-60. The following applies: combination with azacitidine vs single agent, 96 hours. Format: cell-based. The procedure: as §1
(§3) FIGS. 5A-F show the combination of HDAC inhibitors and azacitidine in the HL-60 cell line. Briefly, cells were treated with DMSO, Compound B, Compound A, or Compound E as a single agent or in combination with azacitidine for 96 hours. Surface levels of CD11b (FIGS. 5A, 5C, 5E) and apoptosis (FIGS. 5B, 5D, 5F) was assessed by flow cytometry, as in FIG. 4.

Experiment [4] has as its system MV4-11. Put plainly: Apoptosis by Annexin V / propidium iodide flow cytometry in MV4-11. The following applies: 96 h; for induction of apoptosis: combination with azacitidine; for apoptosis relative to control cells: single agent. Format: cell-based. The procedure:
(§4) The distribution of cells among G0/G1 phase, G2/M phase, S phase and subG1 phase was determined. […] The relative fraction of cells that were live, in early apoptosis, in late apoptosis, or dead was then determined.
(§5) MV4-11 cells were treated with Compound E or with Compound A or with Compound B as single agent or in combination with azacitidine at indicated doses. FIGS. 12A, 12C, and 12E show surface levels of CD11b determined by FACS at 72 h post-treatment. FIGS. 12B, 12D, and 12F show assessment of apoptosis by FACS (as in, e.g., FIG. 9C) at 96 h post-treatment.
(§6) FIG. 17. […] (A) Indicated AML cell lines were exposed to increasing concentrations of Compound J to confirm their sensitivity to HDAC1/2 inhibition. (B-D) MV4-11 cells were treated with indicated concentrations of compounds. (B) Surface levels of myeloid differentiation marker CD11b were determined by FACS at 72 h post-treatment. […] (C) Cell cycle was assessed by flow cytometry after incorporation of EdU and staining with Far Red at 72 h post-treatment. The distribution of cells among G0/G1 phase, G2/M phase, S phase and subG1 phase was determined. […] (D) Apoptosis was assessed by flow cytometry via measuring Annexin V binding and cellular permeability to propidium iodide at 96 h post-treatment. The relative fraction of cells that were live, in early apoptosis, in late apoptosis or dead was then determined.

In experiment [5] the test system is HL-60, Kasumi-1 and NB4. Put plainly: Apoptosis by Annexin V / propidium iodide flow cytometry in three AML cell lines. In kind it is cell-based. The conditions noted are these: single agent; 96 hours; HL-60, Kasumi-1, NB4. The procedure: as §1
(§7) FIGS. 10A-F show the treatment of the following AML cell lines: Kasumi-1 (FIGS. 10A and 10B), HL-60 (FIGS. 10C and 10D) and NB4 (FIGS. 10E and 10F), with indicated doses of compounds. FIGS. 10A, 10C, and 10E show surface levels of myeloid differentiation marker CD11b determined by FACS at 72 h post-treatment. […] FIGS. 10B, 10D, and 10F show the assessment of apoptosis by FACS (see, e.g., FIG. 9C).

For experiment [6], the system named is MV4-11. The experiment in a line: Surface CD11b by FACS in MV4-11. Format: cell-based. The conditions noted are these: 72 h. The procedure: as §4, §5, §6
In experiment [7] the test system is HL-60. Put plainly: Apoptosis by Annexin V / propidium iodide flow cytometry in HL-60. Format: cell-based. The following applies: 96 hours; for apoptotic cells: combination with azacitidine vs single agent. The procedure:
as §1, §3

The test system of experiment [8] is HDAC1, HDAC2, HDAC3 and HDAC6. The experiment in a line: HDAC selectivity of the inhibitor panel. In kind it is biochemical. The following applies: HDAC isoform(s) the inhibitor is selective for. The procedure:
Compounds for testing are diluted in DMSO to 50 fold the final concentration and a ten point three fold dilution series is made. The compounds are diluted in assay buffer (50 mM HEPES, pH 7.4, 100 mM Kill, 0.001% Tween-20, 0.05% BASE, 20 μM TEC) to 6 fold their final concentration. The HDAC enzymes (purchased from BPS Biosciences) are diluted to 1.5 fold their final concentration in assay buffer. The dipeptide substrate and trypsin at 0.05 μM final concentration are diluted in assay buffer at 6 fold their final concentration. The final enzyme concentrations to use in these assays are 3.3 ng/ml (HDAC1), 0.2 ng/ml (HDAC2), 0.08 ng/ml (HDAC3) and 2 ng/ml (HDAC6). The final substrate concentrations to use are 16 μM (HDAC1), 10 μM (HDAC2), 17 μM (HDAC3) and 14 μM (HDAC6). Five μ1 of compound and 20 μl of enzyme are added to wells of a black, opaque 384 well plate in duplicate. Enzyme and compound are incubated together at room temperature for 10 min. Five μ1 of substrate is added to each well, the plate is shaken for 60 seconds and placed into a Victor 2 microliter plate reader. The development of fluorescence is monitored for 60 min. and the linear rate of the reaction is calculated. The IC50 is determined using Graph Pad Prism by a four parameter curve fit.
The following HDAC inhibitors were used to evaluate the relationship between HDAC selectivity and the viability of AML cell lines upon exposure to the HDAC inhibitor: […]

Experiment [9] concerns Kasumi-1. The experiment in a line: Apoptosis by Annexin V / propidium iodide flow cytometry in Kasumi-1. The following applies: 96 hours; for apoptotic cells: combination with azacitidine vs single agent. In kind it is cell-based. The procedure:
as §1, §2

Experiment [10] concerns HL-60, Kasumi-1 and NB4. Put plainly: Surface CD11b by FACS in three AML cell lines. Format: cell-based. The conditions noted are these: single agent; 72 hours; all three cell lines. The procedure: as §1, §7

For `O=C(CCCCCCNC(=O)c1cnc(N(c2ccccc2)c2ccccc2)nc1)NO` [Compound A, 2-(diphenylamino)-N-(7-(hydroxyamino)-7-oxoheptyl)pyrimidine-5-carboxamide], the apoptotic cells result in experiment [1] is reported as “synergistic increases of apoptotic cells”; in [7] it was “synergistic increases”; in [9] it was “synergistic increases”. Further, the CD11b positive cells entry in experiment [2] and in [3] was “synergistic increases of CD11b positive cells” each time. Also, the induction of apoptosis result in experiment [4] is “enhanced induction of apoptosis greater than either single agent”. Also, the “apoptosis relative to control cells” value is given as “increase in apoptosis relative to control cells” in [4] and “increase in apoptosis relative to control cells; also recorded: increased apoptosis relative to control cells” in [5]. Further, the “percentage of CD11b positive cells” value in [6] (combination with azacitidine) is recorded as “further increase of percentage of CD11b positive cells”; in [6] (single agent), “increased the percentage of CD11b positive cells”; in experiment [10], “increased the percentage of CD11b positive cells”. In experiment [8], the Selectivity entry is “HDAC6 (1/2/3)”.
Turning to `O=C(CCCCCCNC(=O)c1cnc(N(c2ccccc2)c2ccccc2Cl)nc1)NO` [Compound B, 2-((2-chlorophenyl)(phenyl)amino)-N-(7-(hydroxyamino)-7-oxoheptyl)pyrimidine-5-carboxamide], the apoptotic cells entry in experiment [1] is “synergistic increases of apoptotic cells”; in [7] it was “synergistic increases”; in experiment [9] it was “synergistic increases”. For the same compound, the CD11b positive cells entry in [2] and in experiment [3] was “synergistic increases of CD11b positive cells” throughout. In [4], the induction of apoptosis result is reported as “enhanced induction of apoptosis greater than either single agent”. Also, the “apoptosis relative to control cells” value in [5] is “increase in apoptosis relative to control cells”. For the same compound, the “percentage of CD11b positive cells” value in [6] (combination with azacitidine) is on record as “further increase of percentage of CD11b positive cells”; in experiment [10] it was “increased the percentage of CD11b positive cells”. Besides, the Selectivity result in experiment [8] is recorded as “HDAC6 (1/2/3)”.
Regarding `Nc1ccc(-c2cccs2)cc1NC(=O)c1ccc2c(c1)cc(C1CC1)n2CCN1CCOCC1` [Compound E, N-(2-amino-5-(thiophen-2-yl)phenyl)-2-cyclopropyl-1-(2-morpholinoethyl)-1H-indole-5-carboxamide], the apoptotic cells result in experiment [1] is “synergistic increases of apoptotic cells”; in experiment [7] it was “synergistic increases”; in [9] it was “synergistic increases”. Moreover, the apoptosis entry in experiment [1] (single agent) was “minimal effects”; in experiment [7] (single agent) it was “induced apoptosis”; in experiment [9] (single agent), “induced apoptosis”. Besides, the CD11b positive cells result in experiment [2] and in experiment [3] was “synergistic increases of CD11b positive cells” each time. The induction of apoptosis entry in experiment [4] is reported as “enhanced induction of apoptosis greater than either single agent”. The “apoptosis relative to control cells” value is on record as “increase in apoptosis relative to control cells” in experiment [4] and “increased apoptosis relative to control cells” in experiment [5]. The “percentage of CD11b positive cells” value in experiment [6] (combination with azacitidine) was “further increase of percentage of CD11b positive cells”; in [6] (single agent), “increased the percentage of CD11b positive cells”; in experiment [10], “increased the percentage of CD11b positive cells”. Further, the Selectivity entry in experiment [8] is on record as “selective for HDAC1/2”.

The values above are taken from patent US9833466B2, “Treatment of leukemia with histone deacetylase inhibitors” (Acetylon Pharmaceuticals Inc., priority 2014, dated 2017).
